Laboratory results: article PMC12677599 (Advanced Science, 2025)

Columns and labels:
Assay type in all cases: cell-based
H460 cell line = experiment: cells; settings: Homo sapiens, NCI-H460; Table S11; MTT; read-out: IC50 Value of chemotherapeutics, H460
How it was run: (§1)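 MTT assay. Tumor lines seeded at 8000 cells per well (24 h) and serum-starved 4–6 h; normal lines (MRC-5, HEK-293) seeded at 10 000 cells per well (48 h). Compounds for 24 h in SFM, then MTT for 2 h (tumor) or 4 h (normal), absorbance at 570 nm; viability normalized to blank and 0.5% DMSO growth control.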

HEK-293 normal cell line = experiment: cells; settings: Homo sapiens, HEK293; Table S11; MTT; read-out: IC50 Value of chemotherapeutics, HEK-293
How it was run: as §1

H460 cells [1] = experiment: LDH release assay; settings: H460, 4 h dosing at each IC50 value; n = 3
Description: The seeding and starvation process were the same as cell antiproliferation evaluation. Cells were treated with 100 µL of compound solutions with different concentrations (compound 266 was tested at 12 µM) for 4 or 24 h. Cells treated with 0.5% DMSO in SFM and 1% Triton X‐100 in SFM served as blank control and positive control, respectively. Afterward, LDH working solution was prepared according to the instructions of the Cytotoxicity Detection Kit (LDH). Fifty µL of supernatant was transferred to another 96‐well plate, and 50 µL of LDH working solution was added to each well, followed by a 40 min incubation at room temperature. Subsequently, the absorbance of each well was measured by the plate reader at 490 nm.
The LDH release ratio was calculated as (3) LDHrelease%=ODSamplegroup−ODBlank/ODPositivegroup−ODBlank×100%

H460 cells [2] = experiment: Killing rate evaluation, calcein-AM/PI double staining; settings: IC50 concentration, n = 2
Description: Calcien‐AM/PI double staining assay was used. NCI‐H460 cells were seeded in a chamber‐slide (154526, Thermo Fisher Scientific) at a density of 100 000 cells per unit in a volume of 500 µL and cultured for 24 h. After starvation with 300 µL of SFM for 4 h, cells were treated with 500 µL of compound solutions with different concentrations for 2, 4, 6, 8, 10 h, respectively. Cells treated with 0.5% DMSO in SFM served as control group. Subsequently, cells in each unit were washed with EBSS once, and incubated with 500 µL of 2 µg mL^−1 calcien‐AM solution at 37 °C for 20 min. Afterward, cells were stained with 500 µL of 2 µg mL^−1 PI solution at room temperature for 15 min and washed with EBSS 3 times. Finally, 300 µL of EBSS was added into each unit. Live (green fluorescence from calcein‐AM) and dead (red fluorescence from PI) cells were then observed and imaged under a fluorescence microscope (LEICA Dmi8). This evaluation was conducted with two biological replicates. Quantitative analyses of living cells were processed with ImageJ software (threshold set: 8‐255).

Question: What does the source list for `COc1cc([C@@H]2c3cc4c(cc3[C@@H](O[C@@H]3O[C@@H]5CO[C@@H](C)O[C@H]5[C@H](O)[C@H]3O)[C@H]3COC(=O)[C@H]23)OCO4)cc(OC)c1O` [Etoposide, etoposide, reference compound]?
Answer: IC50 (H460 cell line): 169 ± 29.2 µM; IC50 (HEK-293 normal cell line): 115 ± 14.7 µM; LDH release ratio (H460 cells [1]): no positive results; cells eliminated within 10 h (H460 cells [2]): ≈ 10%
